# Results: patent publication US9573975B2, “Melanoma antigen peptide and uses thereof” (INSERM (INSTITUT NATIONAL DE LA SANTE ET DE LA RECHERCHE …, priority 2012, dated 2017)
# Experiments:
# Type in all cases: cell-based, human
# [1] = test system: MELOE-111-30 specific CD4 T cell clone (1A5-DRβ1*1101); assay: Peptide stimulation of CD4 T cell clone 1A5, intracellular cytokine staining; details: cognate peptide 10 μM, 5 hours
# Description: (§1) FIG. 5: Minimal peptides recognized by MELOE-1 specific CD4 T cell clones. MELOE-1 specific CD4 T cell clones were incubated with various concentrations of the indicated peptides during 5 hours in presence of Brefeldin A. TNF-α production was assessed by intracellular labeling with an anti-TNF-α specific antibody. The core peptide sequence is indicated in bold on each figure panel, and black circles illustrate the best fitting peptide.
# (§2) Lymphocytes were stimulated for 5 hours in the presence of brefeldin A (10 μg/mL) either with peptide alone (10 μM) in an autopresentation assay or with B-EBV or HLA-class II expressing melanoma cells pulsed 2 hours with the cognate peptide, at a ratio 1:2. In some experiments, blocking mAb against HLA-DP (clone B7.21 from Dr Charron, UMR940, Paris), HLA-DQ (clone SPVL3, Beckman Coulter) or HLA-DR (clone L243, BD Biosciences) were added at a concentration of 12.5 μg/ml. Cells were then stained with APC-conjugated anti-CD4 mAb, fixed with 4% paraformaldehyde, labeled with PE-conjugated anti-cytokine mAb and analyzed by flow cytometry.
# (§3) We also documented the T helper profile of each T cell clone, by stimulating the CD4 T cell clones with the cognate peptide, and analyzing cytokine production. All the clones expressed Th1 cytokines (TNFα, IFNγ, IL2 and GM-CSF). On the contrary, these clones differ in their expression of Th2 cytokines. Indeed, the two DQ2 restricted T cell clones (9C12 and 4E2) and the DR1 restricted one (5F9) also strongly express two Th2 cytokines (IL4, and IL13), whereas the DR11-restricted T cell clone only weakly expressed IL4 (Table IV). None of the CD4 T cell expresses IL10 or IL5 at a significant level.
# (§4) Three shorter peptides were better recognized by the DQ2-restricted 9C12 T cell clone, the shortest one being MELOE-17-19 (13-mer), recognized with an EC50 of 100 nM. The deletion of the two amino acids in C-term strongly reduces T cell clone recognition. […] Nonetheless all of these clones recognized a series of shortened peptides, thus we cannot formally assess that the shortest ones will be the exact peptides naturally presented on class II molecules.
# [2] = test system: MELOE-111-30 specific CD4 T cell clone (5F9-DRβ1*0101); assay: Peptide stimulation of CD4 T cell clone 5F9, intracellular cytokine staining; details: clone 5F9, cognate peptide 10 μM, 5 hours
# Description: as §1, §2, §3, §4
# [3] = test system: CD4 T cells in PBMC from melanoma patients; assay: PBMC from melanoma patients stimulated with MELOE-1, restimulated with peptides, CD4/IFN-γ and CD4/IL4 staining; details: for Th1 responses, share of tested microcultures: of 576 tested microcultures, melanoma patients; for melanoma patients with CD4 specific responses (mainly Th1, IFN-g production) / melanoma patients with Th2 responses: responding/tested patients; for melanoma patients with Th2 responses: IL4
# Description: FIG. 2: (A) Percentages of cytokine producing CD4 T cells among positive microcultures. Fourteen days after PBMC stimulation with MELOE-1 whole polypeptide (2-46), microcultures were re-stimulated with each indicated peptide during 5 hours. IFN-γ (left panel) and IL4 (right panel) production was then assessed by a triple labeling IFN-γ-IL4-CD4. Results were analyzed with a non-parametric test (Kruskal-Wallis) followed by a Dunns post-test. (B) Frequency of microcultures containing CD4 T cells specific for MELOE-1 peptides (assessed by IFN-γ or IL4 intracellular staining after re-stimulation with the 3 indicated peptides). 576 microcultures (from 10 melanoma patients) were analyzed by a contingency table followed by a Fisher exact test.
# PBMC from melanoma patients were stimulated with 10 μM of MELOE-1. After 14 days, the presence of CD4 T cells specific for the different regions of MELOE-1 was assessed by restimulating cells with MELOE-12-21, MELOE-111-30 and MELOE-122-46 peptides, followed by CD4/IFN-γ double staining for the detection of Th1 responses, and by CD4/IL4 double staining for Th2 responses. Between brackets is indicated the mean % of cytokine producing CD4 T cells, in positive microcultures.
# PBMC from healthy donors or melanoma patients (2·10^5 cells/well) were cultured for 14 days with 10 μM of MELOE-1 whole antigen (46 amino acids) in RPMI medium supplemented with 8% HS, 50 IU/ml of rIL-2 (Chiron, France) and L-Glutamin, in 96-well multiplates. Micro cultures were then restimulated individually with each overlapping peptide (MELOE-12-21, MELOE-111-30, MELOE-118-37, MELOE-126-46 or MELOE-122-46 for melanoma patients) in the presence of 10 μg/mL brefeldin A for 5 hours and the percentage of CD4^+ specific T cells was assessed by TNF-α, IFN-γ or IL-4 intracellular staining A negative control without peptide was included in all experiments.
# as §2
# In order to confirm the immunogenicity of each MELOE-1 regions in melanoma patients, we stimulated melanoma patients PBMC with the MELOE-1 whole protein, and tested the reactivity of stimulated lymphocytes towards the three most immunogenic regions: 2-21, 11-30, and 22-46. For this study, instead of challenging microcultures with the 18-37 peptide, that appeared poorly immunogenic, we extended the C-terminus region from 26-46 to 22-46, in order to also detect responses to our previously described HLA-DR11-restricted epitope (24-37). […] We tested the induction of CD4 specific responses from MELOE-1 stimulated PBMC of 10 melanoma patients. We documented CD4 responses specific for the central region of MELOE-1 (11-30) for 7/9 patients, whereas responses specific for MELOE-12-21 and MELOE-122-46 were respectively detected in 4/9 and 5/9 patients (Table III). These responses were mainly Th1 responses (IFN-g production) while less frequent Th2 responses specific for the three regions of MELOE-1 were detected in 3/9 patients for MELOE-12-21, 2/9 patients for MELOE-111-30 and 5/9 patients for MELOE-122-46 (Table III). […] Concerning Th2 responses, much less frequent, the C-term region appeared to induce more frequently the growth of IL-4 producing CD4 T cells than the two other regions (FIG. 2A). […]
# [4] = test system: MELOE-12-21 specific CD4 T cell clone (9C12-DQβ1*0202); assay: Peptide stimulation of CD4 T cell clone 9C12, intracellular cytokine staining; details: cognate peptide 10 μM, 5 hours
# Description: as §1, §2, §3, §4
sequence,measurement,setting,value
TSREQFLPSEGAACPPWHPS [MELOE-111-30],Cytokine profile: GM-CSF,[1],GM-CSF ^high
same,Cytokine profile: IFN,[1],IFN ^high
same,Cytokine profile: IL2,[1],IL2 ^high
same,Cytokine profile: IL4,[1],IL4 ^low
same,Cytokine profile: IL5,[1],IL5 ^neg
same,Cytokine profile: IL10,[1],IL10 ^neg
same,Cytokine profile: IL13,[1],IL13 ^neg
same,Cytokine profile: TNF,[1]; autopresentation,TNF ^high
same,Cytokine profile: GM-CSF,[2],GM-CSF ^high
same,Cytokine profile: IFN,[2],IFN ^high
same,Cytokine profile: IL2,[2],IL2 ^low
same,Cytokine profile: IL4,[2],IL4 ^high
same,Cytokine profile: IL5,[2],IL5 ^neg
same,Cytokine profile: IL10,[2],IL10 ^neg
same,Cytokine profile: IL13,[2],IL13 ^high
same,Cytokine profile: TNF,[2]; autopresentation,TNF ^high
same,"mean % of cytokine producing CD4 T cells, in positive microcultures (IFN-γ, Th1)",[3]; Pt ≠ 1,(1.4% ± 0.7)
same,"mean % of cytokine producing CD4 T cells, in positive microcultures (IL4, Th2)",[3]; Pt ≠ 1,(1%)
same,"mean % of cytokine producing CD4 T cells, in positive microcultures (IFN-γ, Th1)",[3]; Pt ≠ 2,(1.6% ± 1.2)
same,"mean % of cytokine producing CD4 T cells, in positive microcultures (IFN-γ, Th1)",[3]; Pt ≠ 3,(16.2% ± 33.2)
same,"mean % of cytokine producing CD4 T cells, in positive microcultures (IFN-γ, Th1)",[3]; Pt ≠ 4,(0.9% ± 0.5)
same,"mean % of cytokine producing CD4 T cells, in positive microcultures (IFN-γ, Th1)",[3]; Pt ≠ 5,(1.5% ± 1.1)
same,"mean % of cytokine producing CD4 T cells, in positive microcultures (IFN-γ, Th1)",[3]; Pt ≠ 6,(1.5% ± 1.9)
same,"mean % of cytokine producing CD4 T cells, in positive microcultures (IFN-γ, Th1)",[3]; Pt ≠ 8,(2.9% ± 0.04 )
same,"mean % of cytokine producing CD4 T cells, in positive microcultures (IL4, Th2)",[3]; Pt ≠ 9,(0.6% ± 0.09)
same,"Th1 responses, share of tested microcultures",[3],10.8%
same,"melanoma patients with CD4 specific responses (mainly Th1, IFN-g production)",[3],7/9
same,melanoma patients with Th2 responses,[3],2/9
SCVGYPDEATSREQFLPSEG (SCVGYPDEATSREQFLPSEC) [MELOE-12-21],"mean % of cytokine producing CD4 T cells, in positive microcultures (IFN-γ, Th1)",[3]; Pt ≠ 1,(0.7%)
same,"mean % of cytokine producing CD4 T cells, in positive microcultures (IFN-γ, Th1)",[3]; Pt ≠ 2,(0.8% ± 0.2)
same,"mean % of cytokine producing CD4 T cells, in positive microcultures (IFN-γ, Th1)",[3]; Pt ≠ 3,(1.7% ± 2.9)
same,"mean % of cytokine producing CD4 T cells, in positive microcultures (IL4, Th2)",[3]; Pt ≠ 4,(0.7%)
same,"mean % of cytokine producing CD4 T cells, in positive microcultures (IFN-γ, Th1)",[3]; Pt ≠ 5,(0.6%)
same,"mean % of cytokine producing CD4 T cells, in positive microcultures (IL4, Th2)",[3]; Pt ≠ 5,(0.7% ± 0.1)
same,"mean % of cytokine producing CD4 T cells, in positive microcultures (IL4, Th2)",[3]; Pt ≠ 9,(0.6%)
same,"Th1 responses, share of tested microcultures",[3],3.3%
same,"melanoma patients with CD4 specific responses (mainly Th1, IFN-g production)",[3],4/9
same,melanoma patients with Th2 responses,[3],3/9
same,Cytokine profile: GM-CSF,[4],GM-CSF ^high
same,Cytokine profile: IFN,[4],IFN ^high
same,Cytokine profile: IL2,[4],IL2 ^high
same,Cytokine profile: IL4,[4],IL4 ^high
same,Cytokine profile: IL5,[4],IL5 ^low
same,Cytokine profile: IL10,[4],IL10 ^neg
same,Cytokine profile: IL13,[4],IL13 ^high
same,Cytokine profile: TNF,[4]; autopresentation,TNF ^high
